Where two headings read alike, the source gives them in different places.
Legend:
K562 cells = experiment: In situ ultra violet irradiation of dosed K562 cells, IC50; assay type: cell-based, human; details: read-out: IC50 K562 (Nm)
Protocol: Previously, the isomerisation study had been performed ex situ, i.e. in a photochemical reactor. However, it was necessary to illustrate the potential of the process as a real therapy by repeating the isomerization in the presence of the caner cells i.e. in situ. […] Following irradiation, the cells were incubated in the normal way and the IC50 values were determined.
These consisted of i) exposing K562 cells only (i.e. cells which were not dosed with any potential drug candidate) to ultra violet light, ii) preventing K562 cells dosed with drug candidate from being exposed to ultra violet light, and iii) preventing K562 cells only (i.e. cells which were not dosed with any potential drug candidate) from being exposed to ultra violet light. […]

[1] = test system: K562 human myelogeneous leukaemia cell line; experiment: Cytotoxicity/growth inhibition assay (MTT), K562; assay type: cell-based
Excerpt: In addition to the cell lines described in this paper, other established human cell lines (K562, HUVEC, H460, BE, H529, and HT29) were used in the cytotoxicity/growth inhibition assay. • (1) Inhibition of tubulin assembly. The figure quoted is the concentration required to reduce assembly of tubulin by 50%. Tubulin assembly is monitored by light scatter/absorption at 350 nm.
(2) Competition for the colchicine binding site on tubulin. The figure quoted represents the % of ^3H-colchicine bound following co-incubation of test compound and ^3H-cochicine with isolated tubulin. Where ester pro-drugs were used the experiments were carried out in the presence and absence of porcine liver esterase. • (3) Cytotoxicity/growth inhibition assay. This was carried out by the MTT assay. • (4) Permeability (shape-change) assay in endothelial cells. […] This involved the diffusion of a fluorescently labelled dextran through a barrier of endothelial cells (HUVEC) grown to confluence on a porous membrane. The effect of agents to alter the shape of these cells results in an increase in the permeability of the cells to the dye. The figure represents the increase in permeability over control cultures when drug is added (30 minutes, 1 mM.). • (5) Experiments to study the anti-vascular effects of these agents were carried out as described previously by our group. […] The anti-vascular effects of the agents were monitored by either positron emission tomography (PET) or by histologogical examination following treatment of mice bearing T50:80 murine breast tumours, or H460 human lung tumours. • (6) Anti-tumour efficacy of agents was determined in xenografts of H460 human lung cancer. Animals (n=5) were trated either with 5 daily injections and tumour size measured with time following treatment. • (7) The pharmacokinetic profile of agents was determined in mice following injection with drug. Blood was taken at various times following treatment and analysed by HPLC with UV detection. […] (AND(P)H:quinone oxidoreductace, EC 1.6.99.2). DT-diaphorase is an enzyme over-expressed in a number of human tumours. […] This two-electron reducing enzyme can be used to selectively activate prodrugs within cancers which over-express the enzyme.

tubulin [2] = experiment: MA IC50 (Tables 12-26, abbreviation not defined); assay type: biochemical
tubulin [3] = experiment: CD IC50 (Tables 12-26, abbreviation not defined); assay type: binding
[4] = Homo sapiens, K562, MTT, read-out: K562 IC50
[5] = Homo sapiens, K562, Table 22, read-out: MTT (K582) IC50
[6] = Table 22, read-out: MTT (K582) IC50

Row | Compound | IC50 [1, 4] | IC50 [1, 5] | IC50 (tubulin [2]) | IC50 (tubulin [3]) | other results
1 | 4-[2′-methoxy-4′-({2″-methoxy-5″-[(E)-2′″-3′″,4′″,5′″-trimethoxyphenyl)ethenyl]phenoxy}methyl)-5′-nitrophenoxy]butanoic acid(potassium salt) [Compound E-12] |  |  |  |  | IC50 (K562 cells; in situ UV 0 mins (Table 10)): > 50 µM; IC50 (K562 cells; in situ UV 0.5 mins (Table 10)): 1.01 µM; IC50 (K562 cells; in situ UV 1 mins (Table 10)): 0.41 µM; IC50 (K562 cells; in situ UV 1.5 mins (Table 10)): 0.3 µM; IC50 (K562 cells; in situ UV 2 mins (Table 10)): 0.16 µM; IC50 (K562 cells; in situ UV 3 mins (Table 10)): 0.05 µM; IC50 (K562 cells; in situ UV 4 mins (Table 10)): 0.058 µM; IC50 (K562 cells; in situ UV 5 mins (Table 10)): 0.046 µM; IC50 (K562 cells; in situ UV 7.5 mins (Table 10)): 0.022 µM; IC50 (K562 cells; in situ UV 10 mins (Table 10)): 0.016 µM; IC50 (K562 cells; in situ UV 12.5 mins (Table 10)): 0.012 µM; IC50 (K562 cells; in situ UV 15 mins (Table 10)): 0.01 µM; IC50 (K562 cells; in situ UV 17.5 mins (Table 10)): 0.009 µM; IC50 (K562 cells; in situ UV 20 mins (Table 10)): 0.008 µM
2 | COc1ccc(/C=C(/C)c2cc(OC)c(OC)c(OC)c2)cc1O[Si](C)(C)C(C)(C)C [Compound 17a, Z-(3′-t-butyldimethylsilyloxy-4′-methoxyphenyl)-2-(3″,4″,5″-trimethoxyphenyl)propene] | 0.2 µM |  |  |  | 
3 | COc1ccc(/C=C(\C)c2cc(OC)c(OC)c(OC)c2)cc1O[Si](C)(C)C(C)(C)C [Compound 17b, E-1-(3′-t-Butyldimethylsilyloxy-4′-methoxyphenyl)-2-(3″,4″,5″-trimethoxyphenyl)propene] | 6 µM |  |  |  | 
4 | COc1ccc(/C=C(/C)c2cc(OC)c(OC)c(OC)c2)cc1 [Compound 23a, Z-1-(4′-Methoxyphenyl)-2-(3″,4″,5″-trimethoxyphenyl)propene] | 0.1 µM |  |  |  | 
5 | COc1ccc(/C=C(\C)c2cc(OC)c(OC)c(OC)c2)cc1 [Compound 23b, E-1-(4′-Methoxyphenyl)-2-(3″,4″,5″-trimethoxyphenyl)propene] | 0.79 µM |  |  |  | 
6 | COc1ccc(/C=C\c2cc(C)c(C)c(C)c2)cc1Oc1c(F)c(F)nc(F)c1F [Compound 27, (Z)-1-(3′,4′,5′-trimethylphenyl)-2-(3″-(2′″,3′″,5′″,6′″-tetrafluoropyridoxy)-4″-methoxyphenyl)ethene] | 9 µM |  |  |  | 
7 | COc1ccc(C=C(C(=O)O)c2cc(OC)c(OC)c(OC)c2)cc1O [Compound 80] |  | > 50 µM | > 10 µM | > 25 µM | 
8 | COC(=O)C(=Cc1ccc(OC)c(O)c1)c1cc(OC)c(OC)c(OC)c1 [Compound 81] |  | > 50 µM | > 10 µM | > 25 µM | 
9 | COc1ccc(C=C(CO)c2cc(OC)c(OC)c(OC)c2)cc1O [Compound 82] |  | > 50 µM | > 10 µM | > 25 µM | 
10 | COc1ccc(/C=C/c2cc(OC)c(OC)c(OC)c2)cc1Br [Compound 96] |  |  | > 10 µM | > 25 µM | IC50 ([1]; MTT, read-out: K562 IC50): 7.83 µM
11 | COc1ccc(C=C(C)c2cc(OC)c(OC)c(OC)c2)cc1O[Si](C)(C)C(C)(C)C [Compound 208] |  | 0.2 µM | 1.5 µM | > 25 µM | 
12 | COc1ccc(/C=C(\C)c2cc(OC)c(OC)c(OC)c2)cc1O[Si](C)(C)C(C)(C)C [Compound 209] |  |  | > 10 µM | > 25 µM | IC50 [1, 6]: 6 µM
13 | COc1ccc(/C=C(\C)c2cc(OC)c(OC)c(OC)c2)cc1O [Compound 211] | 0.7 µM | 0.7 µM | > 10 µM | > 25 µM | 
14 | COc1ccc(/C=C(\C)c2cc(OC)c(OC)c(OC)c2)cc1 [Compound 214] |  |  | > 10 µM | > 25 µM | IC50 [1, 6]: 0.8 µM
15 | CCC(=Cc1ccc(OC)c(O[Si](C)(C)C(C)(C)C)c1)c1cc(OC)c(OC)c(OC)c1 [Compound 217] |  | 0.5 µM | > 10 µM | > 25 µM | 
16 | CC/C(=C\c1ccc(OC)c(O[Si](C)(C)C(C)(C)C)c1)c1cc(OC)c(OC)c(OC)c1 [Compound 218] |  |  | > 10 µM | > 25 µM | IC50 [1, 6]: 3.4 µM
17 | CC/C(=C\c1ccc(OC)c(O)c1)c1cc(OC)c(OC)c(OC)c1 [Compound 220] |  |  | > 10 µM | > 25 µM | IC50 [1, 6]: 4 µM
18 | COc1ccc(/C=C\c2cc(OC)c(OC)c(O[Si](C)(C)C(C)(C)C)c2)cc1F [Compound 240] | 0.5 µM |  | > 10 µM | > 25 µM | 
19 | CCOc1cc(C=Cc2ccc(OC)c(Br)c2)cc(OCC)c1OCC [Compound 255] |  |  | > 10 µM | > 25 µM | 

Source: patent US7220784B2, “Substituted stilbenes and their reactions” (priority 2000, dated 2007)
